The record followed here is patent US10851075B2, “Stat3 pathway inhibitors and cancer stem cell inhibitors” (Sumitomo Dainippon Pharma Oncology, Inc., priority 2007, dated 2020).

One test deals with H1299 cells. The experiment in a line: MTT cell viability, H1299. The format is cell-based. The note with it: Homo sapiens, NCI-H1299, MTT at 24 hours; for IC50: H1299, Table 4, read-out: IC50 (μM) H1299. The source says: (§1) Cell Culture: HeLa, DU145, H1299, DLD1, SW480, A549, MCF7, LN18, HCT116, HepG2, Paca2, Panel, LNcap, FaDu, HT29, and PC3 cells (ATCC, Manassas, Va.) were maintained in Dulbecco's Modified Eagle Medium (DMEM) (Invitrogen, Carlsbad, Calif.) supplemented with 10% fetal bovine serum (MS) (Gemini Bio-Products, West Sacramento, Calif.) and 5% penicillin/streptomycin/amphotercin B (Invitrogen).
(§2) Cell Viability Determination: For 3-(4,5 dimethylthiazol-2-yl)-2,5-diphenyltetrazolium (MTT) (Sigma-Aldrich, St. Louis, Mo.) analysis, cells were plated in 96 well plates at 10,000 cells per well. 24 hours after plating, compound was added to cells at indicated doses. 22 hours following compound addition, MTT was added to each well (0.5 mg/ml, final concentration) and plates were incubated for an additional 2 hours at 37° C., Medium was then aspirated and the formazan product was solubilized in 100 μl of isopropyl alcohol. The absorbance of each well was measured at 570 nm using a microplate reader.
(§3) Identification of compounds that are apoptotic to a broad spectrum of cancer cells in vitro. Cells plated in 96 well plates and treated with indicated compounds were subjected to MTT analysis at 24 hours following compound treatment to determine cell viability.

The target of test [1] is T1, Stat3 DNA-binding activity (Homo sapiens, UniProt P40763).
T1 construct: endogenous in cells; host or cells: HeLa cells (nuclear extract)
T1 sequence (P40763 whole entry): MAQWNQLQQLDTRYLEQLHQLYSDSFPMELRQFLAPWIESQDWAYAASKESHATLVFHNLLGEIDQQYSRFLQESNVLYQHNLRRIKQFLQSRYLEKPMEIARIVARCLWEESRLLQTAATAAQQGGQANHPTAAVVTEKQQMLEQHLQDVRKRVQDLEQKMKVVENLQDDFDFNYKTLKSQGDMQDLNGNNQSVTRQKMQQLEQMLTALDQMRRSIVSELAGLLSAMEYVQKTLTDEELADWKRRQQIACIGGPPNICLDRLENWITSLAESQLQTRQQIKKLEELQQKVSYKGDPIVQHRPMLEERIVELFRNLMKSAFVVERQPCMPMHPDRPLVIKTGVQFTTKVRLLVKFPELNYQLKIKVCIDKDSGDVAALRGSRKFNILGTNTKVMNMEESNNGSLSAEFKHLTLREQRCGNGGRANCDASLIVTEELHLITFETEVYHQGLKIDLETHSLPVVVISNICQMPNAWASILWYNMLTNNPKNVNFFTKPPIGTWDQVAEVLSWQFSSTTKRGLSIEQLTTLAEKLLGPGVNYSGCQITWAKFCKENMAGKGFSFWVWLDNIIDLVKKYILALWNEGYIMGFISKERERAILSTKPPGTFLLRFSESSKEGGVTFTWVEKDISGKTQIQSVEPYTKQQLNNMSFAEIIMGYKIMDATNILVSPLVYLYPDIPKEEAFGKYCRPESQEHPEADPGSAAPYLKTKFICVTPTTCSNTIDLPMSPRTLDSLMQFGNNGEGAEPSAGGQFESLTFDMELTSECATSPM
The experiment in a line: Stat3 DNA binding assay (EMSA), HeLa nuclear extract. In kind it is biochemical. On the procedure:
STAT3 DNA Binding Assay: Electrophoretic mobility shift assay (EMSA) was performed as described by the manufacturer (Li-Cor Biosciences, Lincoln, Nebr.). Briefly, nuclear extracts were made from HeLa cells using the NucBuster Protein Extraction Kit as described by the manufacturer (EMD Biosciences, San Diego, Calif.). 5 μg of nuclear extract was pre-incubated with the indicated dose of indicated compound for 30 minutes prior to a 15-minute incubation with the IR700-labeled consensus Stat3 oligonucleotide. Samples were then electrophoresed on a polyacrylamide gel and directly scanned using the Odyssey infrared imaging system (Li-Cor Biosciences). For the enzyme-linked immunosorbent assay (ELISA), 5 μg of nuclear extract was preincubated with indicated concentration of indicated compound for 30 minutes prior to the addition of biotinylated oligo (5′-Biotin-[…]-3′). Stat3-DNA complexes were then captured on streptavidin coated 96 well plates (Pierce, Rockford, Ill.). Bound complexes were then incubated with Stat3 polyclonal antibody (Santa Cruz Biotechnology, Santa Cruz, Calif.) followed by anti-rabbit HRP conjugated secondary antibody (GE Healthcare, Pittsburgh, Pa.). Bound antibody was then visualized by addition of TMB substrate (Pierce) and absorbance measured at 450 nm.
Inhibition of Stat3 DNA-binding activity. Nuclear extracts from HeLa cells, which contain constitutively activated Stat3 as detected by phoshporylation at the tyrosine 705 residue, were used to perform Stat3 EMSAs to monitor Stat3 DNA binding activity. Nuclear extracts were incubated with indicated compound prior to incubation with IR700-labeled Stat3 consensus oligonucleotide. Binding of Stat3 to the oligonucleotide was monitored by gel electrophoresis and detection using a LiCor Odyssey infrared scanner.
To calculate the inhibition %, the density of the untreated Stat3 retarded band (control) was set as 100 and the inhibition % was the difference between the control and the relative DNA binding activity of the drug-treated samples.

The next test has as its system SW480 Hoechst SP cells. Kind of test: Anti-CSC MTT assay, SW480 Hoechst side population (SP) cells. In kind it is cell-based. The note with it: Homo sapiens, 48 h. As for the experimental part:
as §2
(§4) Hoechst Side Population: To identify and isolate side population (SP) and non-SP fractions, SW480 cells were removed from the culture dish with trypsin and EDTA, pelleted by centrifugation, washed with phosphate-buffered saline (PBS), and resuspended at 37° C. in Dulbecco's modified Eagle's medium (DMEM) containing 2% FBS and 1 rnM HEPES. The cells were then labeled with Hoechst 33342 (Invitrogen) at a concentration of 5 μg/mL. The labeled cells were incubated for 120 minutes at 37° C., either alone or with 50 μM verapamil (Sigma-Aldrich, St. Louis). After staining, the cells were suspended in Hanks' balanced saline solution (MISS; Invitrogen) containing 2% FBS and 1 mM HEPES, passed a through 40 μm mesh filter, and maintained at 4° C. until flow cytometry analysis. The Hoechst dye was excited at 350 nm, and its fluorescence was measured at two wavelengths using a 450 DF10 (450/20 nm band-pass filter) and a 675LP (675 nm long-pass edge filter) optical filter. The gating on forward and side scatter was not stringent, and only debris was excluded.
(§5) In order to test compounds for anti-CSC activity, freshly isolated CSCs (SW480 Hoechst SP cells or CD44^high FaDu cells) were exposed to a dose range (30-0.117 μM) of compound for 48 h before examining cell viability by MTT assay. IC50s were estimated by plotting the percentage of surviving cells. As shown in Table 7 and Table 8, the compounds of present invention can target cancer stem cells.

The test system of a further test is DU145 cells. The experiment in a line: MTT cell viability, DU145. The format is cell-based. The following applies: Homo sapiens, DU-145, MTT at 24 hours; for IC50: DU145, Table 4, read-out: IC50 (μM) DU145.
From the text: as §1, §2, §3

The test system of a further test is HeLa cells. Kind of test: MTT cell viability, HeLa. The format is cell-based. The following applies: Homo sapiens, MTT at 24 hours; for IC50: Hela, Table 4, read-out: IC50 (μM) Hela.
From the text: as §1, §2, §3

The test system of another test is CD44^high FaDu cells. Kind of test: Anti-CSC MTT assay, CD44high FaDu cells. In kind it is cell-based. The following applies: Homo sapiens, 48 h. As for the experimental part:
as §2
CD44^high cells were isolated by FACS according to the methods described in Ponti et al., with slight modification. Briefly, after trypsinization and recovery of cells for 30 minutes at 37° C. in growth media, cells were pelleted at 400×g and were resuspended in PBS with 2% FBS and 1 mM EDTA at 1×10^6 cells/mL. Cells were then incubated on ice with a 1:100 dilution of CD44-FITC (BD Biosicences, San Diego, Calif.) for 15 minutes. Alternatively, CD24-PE (BD Bioscences, San Diego, Calif.) (1:100) was utilized for negative selection. After washing three times, cells were resuspended at 2×10^6/mL and passed through a […] mesh before sorting
as §5

The subject of another test is CD44^low FaDu cells. The experiment in a line: Anti-CSC MTT assay, CD44low FaDu cells. In kind it is cell-based. The following applies: Homo sapiens, 48 h.
For the next test, the system named is SW480 NSP cells. The experiment in a line: Anti-CSC MTT assay, SW480 non-SP (NSP) cells. The format is cell-based. The following applies: Homo sapiens, 48 h. As for the experimental part: as §2, §4, §5
In the next test the test system is HT29 cells. Kind of test: MTT cell viability, HT29. The format is cell-based. The note with it: Homo sapiens, HT-29; HT29, Colon; MTT at 24 hours; Table 3.
From the text: as §1, §2, §3

The subject of a further test is Panc1 cells. Kind of test: MTT cell viability, Panc1. In kind it is cell-based. The following applies: Homo sapiens, PANC-1; Panc1, Pancreas; MTT at 24 hours; Table 3.
From the text: as §1, §2, §3

The test system of another test is SW480 cells. The experiment in a line: MTT cell viability, SW480. The format is cell-based. The following applies: Homo sapiens; SW480, Colon; MTT at 24 hours; Table 3.
From the text: as §1, §2, §3

Another test deals with MCF7 cells. Kind of test: MTT cell viability, MCF7. In kind it is cell-based. The following applies: Homo sapiens; MCF7, Breast; MTT at 24 hours; Table 3.
From the text: as §1, §2, §3

The subject of the next test is FaDu cells. Kind of test: MTT cell viability, FaDu. The format is cell-based. The note with it: Homo sapiens, MTT at 24 hours.
From the text: as §1, §2, §3

For another test, the system named is A549 cells. Kind of test: MTT cell viability, A549. The format is cell-based. The note with it: Homo sapiens; A549, Lung; MTT at 24 hours following compound treatment; Table 3.
From the text: as §1, §2, §3

The subject of the next test is HepG2 cells. The experiment in a line: MTT cell viability, HepG2. The format is cell-based. The following applies: Homo sapiens; HepG2, Liver; MTT at 24 hours; Table 3.
From the text: as §1, §2, §3

For another test, the system named is HCT116 cells. The experiment in a line: MTT cell viability, HCT116. In kind it is cell-based. The note with it: Homo sapiens, HCT-116; HCT116, Colon; MTT at 24 hours; Table 3.
From the text: as §1, §2, §3

The next test deals with DLD1 cells. The experiment in a line: MTT cell viability, DLD1. In kind it is cell-based. The note with it: Homo sapiens, DLD-1; DLD1, Colon; MTT at 24 hours; Table 3.
From the text: as §1, §2, §3

A further test relates to Paca2 cells. Kind of test: MTT cell viability, Paca2. In kind it is cell-based. The following applies: PaCa-2; Paca2, Pancreas; MTT at 24 hours; Table 3.
From the text: as §1, §2, §3

A further test concerns LNCap cells. The experiment in a line: MTT cell viability, LNCap. The format is cell-based. The following applies: Homo sapiens, Prostate, MTT at 24 hours, Table 3.
From the text: as §1, §2, §3

The next test has as its system PC3 cells. The experiment in a line: MTT cell viability, PC3. The format is cell-based. The following applies: Homo sapiens, PC-3; PC3, Prostate; MTT at 24 hours; Table 3.
From the text: as §1, §2, §3

pIC50: −log10 of the molar value. “Also recorded” adds a separate entry of the source. Where two headings read alike, the source gives them in different places.

For `O=C1c2ccccc2C(=O)c2oc(C(O)c3ccccc3)cc21` (stereo not shown) [Compound 302], the half-maximal inhibitory concentration (IC50) in the test on H1299 cells was found to be 7.2 µM; in the test on SW480 Hoechst SP cells it was 2.06 µM; with DU145 cells it was 4.9 µM; with HeLa cells it was 7.8 µM; with CD44^high FaDu cells, 0.68 µM; in the test on CD44^low FaDu cells it was 3.68 µM. In the test with SW480 NSP cells, the IC50 worked out at 1.29 µM. Further, the “inhibition % 1 × MTT IC50” value in [1] (compound at 1 × MTT IC50, untreated Stat3 retarded band set as 100) amounted to 6%. In addition, in test [1] (compound at 3 × MTT IC50, untreated Stat3 retarded band set as 100), the “inhibition % 3 × MTT IC50” value is recorded as 25%.
`CC(=O)c1cc2c(o1)C(=O)c1ccccc1C2=O` [Compound 401]: the pIC50 in the test on HT29 cells was 5.90; with Panc1 cells, 5.77; with H1299 cells (H1299, Lung, Table 3, read-out: IC50), 6.64; in the test on SW480 cells, 6.49; in the test with DU145 cells (DU145, Prostate, Table 3, read-out: IC50), 6.92; in the test with MCF7 cells, 6.34. In addition, the pIC50 with HeLa cells (HeLa, Cervix, Table 3, read-out: IC50) was 6.37; in the test on FaDu cells (Head and Neck, Table 3, read-out: IC50) it was 6.41; with A549 cells, 6.02; in the test on HepG2 cells, 6.60; in the test with HCT116 cells, 6.24; with DLD1 cells, 6.48. The pIC50 is 6.96 in the test with Paca2 cells, 6.20 with LNCap cells and 5.63 in the test on PC3 cells. In addition, the IC50 came to 0.234 µM in the test with H1299 cells; 0.34 µM in the test with SW480 Hoechst SP cells; 0.116 µM in the test on DU145 cells; 0.428 µM with HeLa cells; 0.39 µM in the test with FaDu cells (Table 4, read-out: IC50 (μM) FaDu); 0.33 µM with SW480 NSP cells. Further, the “inhibition of Stat3 DNA binding (in words)” value in test [1] (HeLa nuclear extract, FIG. 6A/6B) is recorded as “Dose dependent inhibition of Stat3 DNA binding; also recorded: inhibits Stat3 DNA-binding activity”.
